Among the data in patent publication US20130303509A1, “NAMPT INHIBITORS” (AbbVie Inc., priority 2012, published 2013) are IC50 values, retold here.

This experiment relates to PC3 cells. Kind of experiment: NAMPT Cell Proliferation Assay. The class given is cell-based. The following applies: Homo sapiens, PC-3, 120 h, 5 days incubation, cell viability by Cell Titer Glo. The method, then: NAMPT Cell Proliferation Assay
PC3 cells were seeded in 96-well black plates (Corning #3904) at 500 cells)Owell in 90 µl of RPMI media containing 10% heat-inactivated FBS and incubated overnight at 37° C. and 5% CO2 to allow cells to attach to wells. The following day, test compounds were serially diluted in neat DMSO to 1000× final concentrations prior to dilution with RPMI media to 10× and 1% DMSO. […] of the 10× compounds were then transferred to wells containing cells to produce a dose response of 10-fold dilutions from […] to 1×10^−[…]. Cells were incubated for 5 days at 37° C. and 5% CO2, then cell viability was measured using Cell Titer Glo reagent (Promega #G7571). Percent inhibition values were calculated and fitted to a sigmoidal dose response curves using Assay Explorer software to determine IC50s.
(In general: Cellular ATP, detected with luciferase, serves as a proxy for viable cell number.)
The molecule `O=C(Nc1ccc(O[C@@H]2CCN(C(=O)c3cccc(F)c3)C2)cc1)C1CN(c2cccnn2)C1` [Example 518, N-(4-{[(3R)-1-(3-fluorobenzoyl)pyrrolidin-3-yl]oxy}phenyl)-1-(pyridazin-3-yl)azetidine-3-carboxamide] had an IC50 of 0.87 nM.

Molecule `O=C(Nc1ccc(OC2CCN(C(=O)c3cccc(Cl)c3)CC2)cc1)C1CN(c2cccnn2)C1` [Example 250, N-(4-{[1-(3-chlorobenzoyl)piperidin-4-yl]oxy}phenyl)-1-(pyridazin-3-yl)azetidine-3-carboxamide] had an IC50 of 9.11 nM.

In turn, `CCC(C)(C)C(=O)N1CCC(Oc2ccc(NC(=O)C3CN(c4ccnnc4)C3)cc2)CC1` [Example 300, N-(4-{[1-(2,2-dimethylbutanoyl)piperidin-4-yl]oxy}phenyl)-1-(pyridazin-4-yl)azetidine-3-carboxamide] returned an IC50 of 25.9 nM.

In turn, `CC(C)Cn1cc(-c2ccc(NC(=O)C3CN(c4ccnnc4)C3)cc2)cn1` [Example 148, N-{4-[1-(2-methylpropyl)-1H-pyrazol-4-yl]phenyl}-1-(pyridazin-4-yl)azetidine-3-carboxamide] registered an IC50 of 76.1 nM.

`Cc1cc(C)cc(C(=O)N2CCC(c3ccc(NC(=O)[C@H]4CCN(c5cccnn5)C4)cc3)CC2)c1` [Example 693, (3S)-N-{4-[1-(3,5-dimethylbenzoyl)piperidin-4-yl]phenyl}-1-(pyridazin-3-yl)pyrrolidine-3-carboxamide] gave an IC50 of 13.6 nM.

The molecule `O=C(Nc1ccc(C2CCN(C(=O)c3ccccc3)CC2)cc1F)C1CN(c2ccnnc2)C1` [Example 869, N-[4-(1-benzoylpiperidin-4-yl)-2-fluorophenyl]-1-(pyridazin-4-yl)azetidine-3-carboxamide] had an IC50 of 1.98 nM.

In turn, `CC(C)(C)C(=O)N1CC(c2ccc(NC(=O)[C@H]3CCN(c4cccnn4)C3)cc2)C1` [Example 789, (3S)-N-{4-[1-(2,2-dimethylpropanoyl)azetidin-3-yl]phenyl}-1-(pyridazin-3-yl)pyrrolidine-3-carboxamide] yielded an IC50 of 28.4 nM.

In turn, `O=C(Nc1ccc(OC2CN(C(=O)c3ccccc3)C2)cc1)C1CN(c2ccnnc2)C1` [Example 206, N-{4-[(1-benzoylazetidin-3-yl)oxy]phenyl}-1-(pyridazin-4-yl)azetidine-3-carboxamide] displayed an IC50 of 67.4 nM.

With `CCC(C)(C)C(=O)N1CC[C@@H](Oc2ccc(NC(=O)C3CN(c4ccnnc4)C3)cc2)C1` [Example 473, N-(4-{[(3R)-1-(2,2-dimethylbutanoyl)pyrrolidin-3-yl]oxy}phenyl)-1-(pyridazin-4-yl)azetidine-3-carboxamide], half-maximal inhibition (IC50) was put at 9.3 nM.

`CC1CC1C(=O)N1CCC(Oc2ccc(NC(=O)[C@H]3CCN(c4cccnn4)C3)cc2)CC1` (stereo partly drawn) [Example 802, (3S)-N-[4-({1-[(2-methylcyclopropyl)carbonyl]piperidin-4-yl}oxy)phenyl]-1-(pyridazin-3-yl)pyrrolidine-3-carboxamide] showed an IC50 of 26.3 nM. This IC50 lies about 2.8-fold higher than the previous one.

In turn, `CC(C)(C)C(=O)N1CCC(c2ccc(NC(=O)C3CN(c4cccnc4)C3)cc2)CC1` [Example 125, N-{4-[1-(2,2-dimethylpropanoyl)piperidin-4-yl]phenyl}-1-(pyridin-3-yl)azetidine-3-carboxamide] gave an IC50 of 0.24 nM.

Regarding `O=C(Nc1ccc(C2CCN(C(=O)c3ccco3)CC2)cc1)C1CN(c2cccnn2)C1` [Example 436, N-{4-[1-(furan-2-ylcarbonyl)piperidin-4-yl]phenyl}-1-(pyridazin-3-yl)azetidine-3-carboxamide], the IC50 was found to be 0.67 nM.

`CC(C)(O)C(=O)N1CCC(c2ccc(NC(=O)C3CN(c4cnccc4C#N)C3)cc2)CC1` [Example 97, 1-(4-cyanopyridin-3-yl)-N-{4-[1-(2-hydroxy-2-methylpropanoyl)piperidin-4-yl]phenyl}azetidine-3-carboxamide] registered an IC50 of 922 nM.

On to `CC(C)C(=O)N1CCC(Oc2ccc(NC(=O)C3CN(c4cccnn4)C3)cc2)CC1` [Example 253, N-(4-{[1-(2-methylpropanoyl)piperidin-4-yl]oxy}phenyl)-1-(pyridazin-3-yl)azetidine-3-carboxamide], for which the IC50 is 8.09 nM.

As to `C=CCC(=O)N1CCC(c2ccc(NC(=O)[C@H]3CCN(c4cccnn4)C3)cc2)CC1` [Example 717, (3S)-N-{4-[1-(but-3-enoyl)piperidin-4-yl]phenyl}-1-(pyridazin-3-yl)pyrrolidine-3-carboxamide], the IC50 turned out to be 12.1 nM. This IC50 and that of the molecule before are within 1.5-fold of each other.

With `CC(C)(C)c1ccc(C(=O)N2CCC(c3ccc(NC(=O)C4CN(c5cccnn5)C4)cc3)CC2)cc1` [Example 393, N-{4-[1-(4-tert-butylbenzoyl)piperidin-4-yl]phenyl}-1-(pyridazin-3-yl)azetidine-3-carboxamide], half-maximal inhibition (IC50) was put at 3.72 nM.

`O=C(Nc1ccc(S(=O)(=O)C2CCN(C(=O)Cc3cc(F)cc(F)c3)CC2)cc1)C1CN(c2cccnn2)C1` [Example 585, N-[4-({1-[(3,5-difluorophenyl)acetyl]piperidin-4-yl}sulfonyl)phenyl]-1-(pyridazin-3-yl)azetidine-3-carboxamide] came in with an IC50 of 283 nM.

On to `CC(C)Cn1cc(-c2ccc(C(=O)N[C@H]3CCN(c4cnnc(Cl)c4Cl)C3)s2)cn1` [Example 620, N-[(3S)-1-(5,6-dichloropyridazin-4-yl)pyrrolidin-3-yl]-5-[1-(2-methylpropyl)-1H-pyrazol-4-yl]thiophene-2-carboxamide], for which inhibition was half-maximal at 2830 nM (IC50).

Turning to `O=C(Nc1ccc(C2CCN(C(=O)Cc3ccc(F)cc3)CC2)cc1)C1CN(c2ccnnc2)C1` [Example 531, N-(4-{1-[(4-fluorophenyl)acetyl]piperidin-4-yl}phenyl)-1-(pyridazin-4-yl)azetidine-3-carboxamide], the IC50 turned out to be 17.6 nM.

Turning to `O=C(Nc1ccc(C2CN(C(=O)c3ccc(F)cc3)C2)cc1)[C@H]1CCN(c2cccnn2)C1` [Example 787, (3S)-N-{4-[1-(4-fluorobenzoyl)azetidin-3-yl]phenyl}-1-(pyridazin-3-yl)pyrrolidine-3-carboxamide], the IC50 was found to be 63.9 nM.

In turn, `CC(=O)N[C@@H](CC(C)C)C(=O)N1CCC(Oc2ccc(NC(=O)C3CN(c4cccnc4)C3)cc2)CC1` [Example 47, N-(4-{[1-(N-acetyl-L-leucyl)piperidin-4-yl]oxy}phenyl)-1-(pyridin-3-yl)azetidine-3-carboxamide] showed an IC50 of 3.35 nM.

Molecule `O=C(Nc1ccc(OC2CCN(C(=O)c3ccco3)CC2)cc1)C1CN(c2cccnc2)C1` [Example 63, N-(4-{[1-(furan-2-ylcarbonyl)piperidin-4-yl]oxy}phenyl)-1-(pyridin-3-yl)azetidine-3-carboxamide] showed an IC50 of 6.35 nM.

`O=C(NC1CN(c2cccnn2)C1)c1ccc(C2CCN(C(=O)c3ccc(F)cc3F)CC2)s1` [Example 813, 5-[1-(2,4-difluorobenzoyl)piperidin-4-yl]-N-[1-(pyridazin-3-yl)azetidin-3-yl]thiophene-2-carboxamide] had an IC50 of 78.6 nM.

With `O=C(Nc1ccc(OC2CCN(C(=O)c3ccsc3)CC2)cc1)C1CN(c2ccnnc2)C1` [Example 278, 1-(pyridazin-4-yl)-N-(4-{[1-(thiophen-3-ylcarbonyl)piperidin-4-yl]oxy}phenyl)azetidine-3-carboxamide], the midpoint of inhibition, the IC50, lay at 79.1 nM.

As for `CC(C)C(=O)N1CC(Oc2ccc(NC(=O)C3CN(c4ccnnc4)C3)cc2)C1` [Example 264, N-(4-{[1-(2-methylpropanoyl)azetidin-3-yl]oxy}phenyl)-1-(pyridazin-4-yl)azetidine-3-carboxamide], the IC50 was found to be 100 nM.

Regarding `O=C(Nc1ccc(OC2CCN(C(=O)c3ccccc3Cl)CC2)cc1)C1CN(c2ccnnc2)C1` [Example 279, N-(4-{[1-(2-chlorobenzoyl)piperidin-4-yl]oxy}phenyl)-1-(pyridazin-4-yl)azetidine-3-carboxamide], the midpoint of inhibition, the IC50, lay at 9.72 nM.

Regarding `O=C(Nc1ccc(OC2CCN(C(=O)c3ccccn3)CC2)cc1)C1CN(c2ccnnc2)C1` [Example 296, 1-(pyridazin-4-yl)-N-(4-{[1-(pyridin-2-ylcarbonyl)piperidin-4-yl]oxy}phenyl)azetidine-3-carboxamide], the IC50 was 68.9 nM. Compared with the last molecule, the IC50 is about 7.1-fold higher.

The molecule `CCC(C)(C)C(=O)N1CCC(Oc2ccc(NC(=O)C3CN(c4cccnc4)C3)cc2)CC1` [Example 40, N-(4-{[1-(2,2-dimethylbutanoyl)piperidin-4-yl]oxy}phenyl)-1-(pyridin-3-yl)azetidine-3-carboxamide] came in with an IC50 of 2.17 nM.

`CC(C)C(C)C(=O)N1CCC(Oc2ccc(NC(=O)C3CN(c4cccnc4)C3)cc2)CC1` (centres unmarked) [Example 70, N-(4-{[1-(2,3-dimethylbutanoyl)piperidin-4-yl]oxy}phenyl)-1-(pyridin-3-yl)azetidine-3-carboxamide] came in with an IC50 of 3.97 nM.

`CCC(C)CC(=O)N1CCC(c2ccc(NC(=O)[C@H]3CCN(c4cccnn4)C3)cc2)CC1` (stereo partly drawn) [Example 682, (3S)-N-{4-[1-(3-methylpentanoyl)piperidin-4-yl]phenyl}-1-(pyridazin-3-yl)pyrrolidine-3-carboxamide] gave an IC50 of 2.73 nM. This IC50 and that of the molecule before are within 1.5-fold of each other.

`Cc1ncccc1N1CC(C(=O)Nc2ccc(C3CCN(C(=O)c4cc(Cl)cc(Cl)c4)CC3)cc2)C1` [Example 154, N-{4-[1-(3,5-dichlorobenzoyl)piperidin-4-yl]phenyl}-1-(2-methylpyridin-3-yl)azetidine-3-carboxamide]: the IC50 was determined as 803 nM.

The molecule `O=C(Nc1ccc(-c2cnn(CCN3CCNCC3)c2)cc1)C1CN(c2cccnn2)C1` [Example 750, N-(4-{1-[2-(piperazin-1-yl)ethyl]-1H-pyrazol-4-yl}phenyl)-1-(pyridazin-3-yl)azetidine-3-carboxamide] yielded an IC50 of 226 nM.

As a reminder, the IC50 is the concentration that inhibits the measured activity by half. Lower therefore signals greater potency.
